From patent US10988466B2, “Heterocyclic derivatives useful as SHP2 inhibitors” (Jacobio Pharmaceuticals Co., Ltd., priority 2017, dated 2021) come the findings set out here.
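Note: compounds preincubated 30 min at room temperature in the assay mixture, activity referenced to a 0.5% (v/v) DMSO control taken as 100%, run in triplicate.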

The assay addresses T1, SHP2 (Homo sapiens, UniProt Q06124).
T1 sequence (Q06124 1-593): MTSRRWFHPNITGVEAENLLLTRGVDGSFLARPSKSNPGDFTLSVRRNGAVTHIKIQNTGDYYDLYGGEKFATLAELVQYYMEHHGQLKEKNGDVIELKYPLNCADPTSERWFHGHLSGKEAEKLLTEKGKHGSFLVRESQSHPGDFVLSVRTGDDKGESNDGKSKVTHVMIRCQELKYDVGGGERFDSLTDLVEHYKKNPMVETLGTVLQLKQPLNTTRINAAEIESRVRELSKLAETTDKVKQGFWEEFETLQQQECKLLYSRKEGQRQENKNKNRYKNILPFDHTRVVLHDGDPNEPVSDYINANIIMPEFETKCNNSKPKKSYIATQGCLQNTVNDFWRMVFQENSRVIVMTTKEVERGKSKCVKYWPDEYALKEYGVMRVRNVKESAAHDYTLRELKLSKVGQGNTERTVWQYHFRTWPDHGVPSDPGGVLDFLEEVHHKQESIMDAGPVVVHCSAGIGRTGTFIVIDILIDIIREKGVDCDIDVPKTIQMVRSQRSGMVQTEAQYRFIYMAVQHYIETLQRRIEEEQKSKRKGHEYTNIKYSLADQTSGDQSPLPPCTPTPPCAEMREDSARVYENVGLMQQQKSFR
The assay is described as follows: biochemical. The note with it: read-out: SHP2 inhibition (%)@0.1 μM.
For the compound `Nc1nc(N2CCC3(CC2)Cc2ccncc2[C@H]3N)cnc1Sc1ccnc(N)c1Cl` [Example 21, (S)-1′-(6-amino-5-((2-amino-3-chloropyridin-4-yl)thio)pyrazin-2-yl)-5,7-dihydrospiro[cyclopenta [c]pyridine-6,4′-piperidin]-7-amine], the inhibition at 0.1 µM turned out to be 49%. To `C[S+]([O-])c1ccc2c(c1)[C@@H](N)C1(CCN(c3cnc(Sc4ccnc(N)c4Cl)c(N)n3)CC1)C2` (stereo partly drawn) [Example 25, (1S)-1′-(6-amino-5-((2-amino-3-chloropyridin-4-yl)thio)pyrazin-2-yl)-6-(methylsulfinyl)-1,3-dihydrospiro [indene-2,4′-piperidin]-1-amine] belongs 72%.

With `Nc1nc(N2CCC3(CC2)Cn2c(cccc2=O)C3N)cnc1Sc1ccnc(N)c1Cl` (stereo not drawn) [Example 141, 1-amino-1′-(6-amino-5-((2-amino-3-chloropyridin-4-yl)thio)pyrazin-2-yl)-3H-spiro[indolizine-2,4′-piperidin]-5(1H)-one], the inhibition at 0.1 µM worked out at 41%. To `CCOP(=O)(OCC)c1ccc2c(c1)[C@@H](N)C1(CCN(c3cnc(Sc4ccnc(N)c4Cl)c(N)n3)CC1)C2` [Example 90, diethyl (S)-(1-amino-1′-(6-amino-5-((2-amino-3-chloropyridin-4-yl)thio)pyrazin-2-yl)-1,3-dihydrospiro [indene-2,4′-piperidin]-6-yl) phosphonate] belongs 71%; to `Nc1nc(N2CCC3(CC2)Cc2ccc(-n4ccnc4)cc2[C@H]3N)cnc1Sc1ccnc(N)c1Cl` [Example 36, (S)-1′-(6-amino-5-((2-amino-3-chloropyridin-4-yl)thio)pyrazin-2-yl)-6-(1H-imidazol-1-yl)-1,3-dihydrospiro [indene-2,4′-piperidin]-1-amine], 65%; to `Nc1nc(N2CCC3(CC2)Cc2ncccc2[C@H]3N)cnc1Sc1cc(Cl)ncc1C(F)(F)F` [Example 120, (S)-1′-(6-amino-5-((2-chloro-5-(trifluoromethyl)pyridin-4-yl)thio)pyrazin-2-yl)-5,7-dihydrospiro [cyclopenta[b]pyridine-6,4′-piperidin]-5-amine], 87%. As for `Nc1nc(N2CCC3(CC2)Cc2c(ccc4ccccc24)[C@H]3N)cnc1Sc1ccnc(N)c1Cl` [Example 31, (S)-1′-(6-amino-5-((2-amino-3-chloropyridin-4-yl)thio)pyrazin-2-yl)-1,3-dihydrospiro[cyclopenta [a]naphthalene-2,4′-piperidin]-3-amine], the inhibition at 0.1 µM came out at 70%. To `Nc1cnccc1Sc1ncc(N2CCC3(CC2)Cc2ncccc2[C@H]3N)nc1N` [Example 109, (S)-1′-(6-amino-5-((3-aminopyridin-4-yl)thio)pyrazin-2-yl)-5,7-dihydrospiro[cyclo-penta[b]pyridine-6,4′-piperidin]-5-amine] belongs 71%; to `Nc1nc(N2CCC3(CC2)Cc2ccc(-n4cccc4)cc2[C@H]3N)cnc1Sc1ccnc(N)c1Cl` [Example 37, (S)-1′-(6-amino-5-((2-amino-3-chloropyridin-4-yl)thio)pyrazin-2-yl)-6-(1H-pyrrol-1-yl)-1,3-dihydro-spiro[indene-2,4′-piperidin]-1-amine], 76%. To `Nc1nccc(Sc2cnc(N3CCC4(CC3)Cc3ccccc3[C@H]4N)cn2)c1Cl` [Example 48, (S)-1′-(5-((2-amino-3-chloropyridin-4-yl)thio)pyrazin-2-yl)-1,3-dihydro-spiro[indene-2,4′-piperidin]-1-amine] belongs 81%; to `Nc1nc(N2CCC3(CC2)c2cccnc2C[C@H]3N)cnc1Sc1ccnc(N)c1Cl` [Example 72, (R)-1′-(6-amino-5-((2-amino-3-chloropyridin-4-yl)thio)pyrazin-2-yl)-6,7-dihydrospiro[cyclopenta [b]pyridine-5,4′-piperidin]-6-amine], 28%; to `Nc1nc(N2CCC3(CC2)Cc2ncccc2[C@H]3N)cnc1Sc1cccnc1C(F)(F)F` [Example 114, (S)-1′-(6-amino-5-((2-(trifluoro-methyl)pyridin-3-yl)thio)pyrazin-2-yl)-5,7-dihydrospiro [cyclopenta [b]pyridine-6,4′-piperidin]-5-amine], 96%.

For `N[C@@H]1c2cccnc2CC12CCN(c1cnc(Sc3ccnc(O)c3Cl)cn1)CC2` [Example 135, (S)-4-((5-(5-amino-5,7-dihydrospiro [cyclopenta[b]pyridine-6,4′-piperidin]-1′-yl)pyrazin-2-yl)thio)-3-chloropyridin-2-ol], the inhibition at 0.1 µM amounted to 86%. On to `Nc1cccc(Sc2cnc(N3CCC4(CC3)Cc3ncccc3[C@H]4N)cn2)c1Cl` [Example 97, (S)-1′-(5-((3-amino-2-chlorophenyl)thio)pyrazin-2-yl)-5,7-dihydro-spiro[cyclopenta [b]pyridine-6,4′-piperidin]-5-amine], for which the inhibition at 0.1 µM was 86%.

Consider `CC(=O)N1CC(F)(F)c2c(Sc3ncc(N4CCC5(CC4)c4ccccc4C[C@H]5N)nc3N)cccc21` [Example 6, (R)-1-(4-((3-amino-5-(2-amino-2,3-dihydrospiro[indene-1,4′-piperidin]-1′-yl)pyrazin-2-yl)thio)-3,3-difluoroindolin-1-yl)ethan-1-one], for which the inhibition at 0.1 µM stood at 66%.

With `Nc1nc(N2CCC3(CC2)Cc2cc(F)c(Br)cc2[C@H]3N)cnc1Sc1ccnc(N)c1Cl` [Example 38, (S)-1′-(6-amino-5-((2-amino-3-chloropyridin-4-yl)thio)pyrazin-2-yl)-6-bromo-5-fluoro-1,3-dihydrospiro[indene-2,4′-piperidin]-1-amine], the inhibition at 0.1 µM worked out at 75%. To `Cc1ccc2c(c1)[C@@H](N)C1(CCN(c3cnc(Sc4ccnc(N)c4Cl)c(N)n3)CC1)C2` [Example 23, (S)-1′-(6-amino-5-((2-amino-3-chloropyridin-4-yl)thio)pyrazin-2-yl)-6-methyl-1,3-dihydro-spiro[indene-2,4′-piperidin]-1-amine] belongs 71%; to `CC(C)(C)c1cc2c(s1)CC1(CCN(c3cnc(Sc4ccnc(N)c4Cl)c(N)n3)CC1)[C@@H]2N` [Example 79, (S)-1′-(6-amino-5-((2-amino-3-chloropyridin-4-yl)thio)pyrazin-2-yl)-2-(tert-butyl)-4,6-dihydro-spiro[cyclopenta [b]thiophene-5,4′-piperidin]-4-amine], 58%; to `Nc1nc(N2CCC3(CC2)Oc2ncccc2[C@H]3N)cnc1Sc1ccnc(N)c1Cl` [Example 96], 66%. With `NC(=O)Nc1ccc2c(c1)[C@@H](N)C1(CCN(c3cnc(Sc4ccnc(N)c4Cl)c(N)n3)CC1)C2` [Example 46, (S)-1-(1-amino-1′-(6-amino-5-((2-amino-3-chloropyridin-4-yl)thio)pyrazin-2-yl)-1,3-dihydrospiro [indene-2,4′-piperidin]-6-yl)urea], the inhibition at 0.1 µM came out at 69%. Regarding `CN1CCN(c2ccc3c(c2)[C@@H](N)C2(CCN(c4cnc(Sc5ccnc(N)c5Cl)c(N)n4)CC2)C3)CC1` [Example 75, (S)-1′-(6-amino-5-((2-amino-3-chloropyridin-4-yl)thio)pyrazin-2-yl)-6-(4-methylpiperazin-1-yl)-1,3-dihydrospiro [indene-2,4′-piperidin]-1-amine], the inhibition at 0.1 µM was determined as 16%.

A word on the inhibition: it is the drop in the measured response relative to a control, in per cent.
